The assay deals with T1, CFTR del Ex24 (Homo sapiens, UniProt P13569, DEL1292-1321).
T1 construct: expressed in transfected cells; host or cells: HEK 293 cells, transient transfection with Lipofectamine 2000
Description: FLIPR membrane potential assay of CFTR function. The format is cell-based. To be noted: HEK 293 cells transiently transfected with CFTR del Ex24; activated by forskolin 10 uM; FIG. 1B. How it is done:
HEK cells were transiently transfected with a construct bearing a CFTR transcript having exon 24 completely deleted from it (CFTR del Ex24). Transfection was carried out using Lipofectamine 2000 transfection reagent (Invitrogen) according to the lipofectamine 2000 reagent protocol using the following lipofectamine amounts: 96 well—0.15 μl, 6 well—3 μl, 10 mm plate—15 μl. HEK cells transfected with the CFTR del Ex24 construct were grown in 96-well (black, flat bottom; corning) plates. 48 hr post-transfection, CFTR channel function was analyzed using the FLIPR membrane potential assay as previously described (Molinski et al., 2015). Briefly, the cells were loaded with blue membrane potential dye (Molecular Devices), which can detect changes in transmembrane potential. The plate was then read in a fluorescence plate reader (BioTek Synergy H1) for baseline levels followed by CFTR stimulation using the cAMP agonist forskolin (10 μM; Sigma), DMSO vehicle was used as a negative control. CFTR-mediated depolarization of the plasma membrane was detected as an increase in fluorescence and hyperpolarization (or repolarization) as a decrease. […] FLIPR™ (Fluorescence Imaging Plate Reader) is a functional system that allows measuring changes in membrane potential by a fluorescent indicator. […]

Each structure is given as a SMILES string.

T1 sequence (P13569 with tags, fused parts or gaps DEL1292-1321): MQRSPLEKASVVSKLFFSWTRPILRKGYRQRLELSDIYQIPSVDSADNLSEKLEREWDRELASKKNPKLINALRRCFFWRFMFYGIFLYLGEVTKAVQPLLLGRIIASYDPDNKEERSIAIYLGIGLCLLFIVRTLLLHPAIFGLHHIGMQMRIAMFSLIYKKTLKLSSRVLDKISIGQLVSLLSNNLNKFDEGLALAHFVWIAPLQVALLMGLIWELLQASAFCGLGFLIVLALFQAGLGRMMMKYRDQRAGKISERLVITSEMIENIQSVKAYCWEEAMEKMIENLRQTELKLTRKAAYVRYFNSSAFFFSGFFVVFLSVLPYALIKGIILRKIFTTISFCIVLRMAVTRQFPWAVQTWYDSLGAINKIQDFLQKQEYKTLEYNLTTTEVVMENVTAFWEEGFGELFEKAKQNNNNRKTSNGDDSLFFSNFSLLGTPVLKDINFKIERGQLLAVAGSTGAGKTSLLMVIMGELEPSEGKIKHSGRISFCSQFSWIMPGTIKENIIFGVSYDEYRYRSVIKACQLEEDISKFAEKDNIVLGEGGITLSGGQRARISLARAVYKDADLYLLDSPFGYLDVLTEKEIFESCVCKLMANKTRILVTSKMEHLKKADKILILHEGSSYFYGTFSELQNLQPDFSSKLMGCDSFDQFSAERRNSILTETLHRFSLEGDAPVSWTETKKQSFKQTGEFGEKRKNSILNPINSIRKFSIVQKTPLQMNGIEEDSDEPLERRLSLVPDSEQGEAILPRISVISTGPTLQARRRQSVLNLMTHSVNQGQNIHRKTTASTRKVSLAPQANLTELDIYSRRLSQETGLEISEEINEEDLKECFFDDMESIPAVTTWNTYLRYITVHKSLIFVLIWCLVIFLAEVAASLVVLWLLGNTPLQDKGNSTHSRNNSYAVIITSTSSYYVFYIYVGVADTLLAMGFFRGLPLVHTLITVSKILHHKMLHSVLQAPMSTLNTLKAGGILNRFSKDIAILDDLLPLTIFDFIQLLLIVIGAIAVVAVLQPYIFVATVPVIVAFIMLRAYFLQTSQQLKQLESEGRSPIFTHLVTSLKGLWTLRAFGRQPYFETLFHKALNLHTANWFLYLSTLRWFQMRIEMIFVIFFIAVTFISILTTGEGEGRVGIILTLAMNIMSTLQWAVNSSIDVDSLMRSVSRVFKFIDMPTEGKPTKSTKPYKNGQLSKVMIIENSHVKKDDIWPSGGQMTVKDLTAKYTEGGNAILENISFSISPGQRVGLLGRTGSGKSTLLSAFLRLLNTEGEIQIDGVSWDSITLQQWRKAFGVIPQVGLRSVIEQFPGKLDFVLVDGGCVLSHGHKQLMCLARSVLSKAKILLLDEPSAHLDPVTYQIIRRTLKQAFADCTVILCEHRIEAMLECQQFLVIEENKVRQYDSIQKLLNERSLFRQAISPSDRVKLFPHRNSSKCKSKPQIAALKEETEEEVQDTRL

On to `CC(C)(C)c1cc(C(C)(C)C)c(NC(=O)c2c[nH]c3ccccc3c2=O)cc1O` [VX-770, N-(2,4-Di-tert-butyl-5-hydroxyphenyl)-4-oxo-1,4-dihydroquinoline-3-carboxamide], for which the channel activation was 50 % of WT.

The values are drawn from patent publication US20220064647A1, “COMPOSITIONS AND METHODS FOR TREATING CYSTIC FIBROSIS” (SpliSense Ltd., priority 2019, published 2022).
